According to patent publication US5905068A, “Retroviral protease inhibiting compounds” (Abbott Laboratories, priority 1996, dated 1999):

How the values were obtained:
[1] = system: HIVIIIB; test: Antiviral Activity: anti-HIV activity in MT4 cells infected with HIVIIIB (MTT); type: cell-based; conditions: Human immunodeficiency virus 1, 120 h, MOI 0.003, 5 days, n=four duplicate determinations
Procedure: (§1) The anti-HIV activity of the compound of the invention was determined in MF4 cells according to the following procedure: MT4 cells were infected with cell-free supernatant of HIVIIIB (previously frozen with known 50% tissue culture infectious dose (TCID50) at 0.003 multiplicity of infection (MOI)) for one hour. After one hour infection, cells were washed twice to remove residual viruses, resuspended in culture media and seeded into 96-well tissue culture plates at 1×10^4 cells per well with various half-log dilutions of compounds. Uninfected cells were included a toxicity and cell controls. RPMI 1640 media (GIBCO) with 10% fetal bovine serum was used as culture media. Various concentrations (50%, 25% and 12.5%) of human serum (SIGMA) were added to culture media resulting in final concentrations of 60%, 35% and 22.5% total serum. All assay plates were incubated in a 37° C. incubator for 5 days. The compound 3-[4,5-dimethylthiozol-2-yl]-2,5-diphenyltetrazolium bromide (MTT, SIGMA, 5 mg .mL stock in PBS) was then added to all wells at 25 μL per well and incubated for 4 hours. SDS (20%) with 0.02N HCl in water was added at 50 μL per well to lyse cells. Plates were incubated overnight for complete cell lysis and then read on a microtiter plate reader at 570/650 nm wavelengths to determine cell optical density (O.D.). Raw data was analysed for percent inhibition by the following formula: [formula]
The 50% effective concentration (EC50) was calculated by the median effect equation (Chou, 1975, Proc. Int. Cong. Pharmacol. 6th p. 619) to determine the efficacy of compound. The 50% cytotoxicity concentration (CTC50) was calculated using uninfected MT4 cells
Under these conditions, the data of Table 2 was obtained (n=four duplicate determinations).

[2] = target: HIV-1 protease (Human immunodeficiency virus type 1 group M subtype B, UniProt P04585); test: Fluorogenic Assay for Screening Inhibitors of HIV Protease; conditions: pH 4.5
[3] = Cytotoxicity in uninfected MT4 cells (MTT); type: cell-based; conditions: human, 5 days, n=four duplicate determinations, read-out: CTC50 (50% cytotoxicity concentration)
Procedure: as §1, with “RPMI 1640 media (GIBCO) with 10% fetal bovine serum was used as culture media. Various concentrations (50%, 25% and 12.5%) of human serum (SIGMA) were added to culture media resulting in final concentrations of 60%, 35% and 22.5% total serum.” left out, “The compound 3-[4,5-dimethylthiozol-2-yl]-2,5-diphenyltetrazolium bromide (MTT, SIGMA, 5 mg .mL stock in PBS) was then added to all wells at 25 μL per well and incubated for 4 hours.” left out
The 50% cytotoxicity concentration (CTC50) was calculated using uninfected MT4 cells

| EC50 [1] [nM] | inhibition at 0.0005 µM [2] [%] | inhibition at 0.001 µM [2] [%] | Compound | CC50 at 120 h [3] [nM] |
| --- | --- | --- | --- | --- |
| < 32 | 87 | – | Cc1ccc(N)c(C)c1OCC(=O)N[C@@H](Cc1ccccc1)C[C@H](O)[C@H](Cc1ccccc1)NC(=O)O[C@H]1CO[C@H]2OCC[C@H]21 [Example 16, (2S,3S,5S)-5-(2,6-Dimethyl-3-amino-phenoxyacetyl)amino-2-((3R,3aS,6aR)-bis-tetrahydrofuran-3-yl-oxycarbonyl)amino-1,6-diphenyl-3-hydroxyhexane] | > 100000 |
| 5790 | – | 50 | Cc1cc(N)cc(C)c1SCC(=O)N[C@@H](Cc1ccccc1)C[C@H](O)[C@H](Cc1ccccc1)NC(=O)O[C@H]1CO[C@H]2OCC[C@H]21 [Example 17, 5-(2,6-Dimethyl-4-amino-phenylthioacetyl)amino-2-((3R,3aS,6aR)-bis-tetrahydrofuran-3-yl-oxycarbonyl)amino-1,6-diphenyl-3-hydroxybexane] | 56000 |
| 114 | 80 | – | Cc1cc2[nH]cnc2c(C)c1OCC(=O)N[C@@H](Cc1ccccc1)C[C@H](O)[C@H](Cc1ccccc1)NC(=O)O[C@H]1CO[C@H]2OCC[C@H]21 [Example 24, (2S,3S,5S)-5-(4,6-Dimethyl-benzimidazol-5-yloxy-acetyl)amino-2-((3R,3aS,6aR)-bis-tetrahydrofuran-3-yl-oxycarbonyl)amino-1,6-diphenyl-3-hydroxyhexane] | > 100000 |
| 972 | 85 | – | Cc1cc2[nH]c(=O)[nH]c2c(C)c1OCC(=O)N[C@@H](Cc1ccccc1)C[C@H](O)[C@H](Cc1ccccc1)NC(=O)O[C@H]1CO[C@H]2OCC[C@H]21 [Example 25, (2S,3S,5S)-5-(4,6-Dimethyl-benzimidazolinon-5-yloxy-acetyl)amino-2-((3R,3aS,6aR)-bis-tetrahydrofuran-3-yl-oxycarbonyl)amino-1,6-diphenyl-3-hydroxyhexane] | > 100000 |
| 157 | 80 | – | Cc1cc2ncoc2c(C)c1OCC(=O)N[C@@H](Cc1ccccc1)C[C@H](O)[C@H](Cc1ccccc1)NC(=O)O[C@H]1CO[C@H]2OCC[C@H]21 [Example 26, (2S,3S,5S)-5-(4,6-Dimethyl-benzoxazol-5-yloxy-acetyl)amino-2-((3R,3aS,6aR)-bis-tetrahydrofuran-3-yl-oxycarbonyl)amino-1,6-diphenyl-3-hydroxyhexane] | 29800 |
| 1180 | 50 | – | Cc1cccc(C)c1OCC(=O)N[C@@H](Cc1ccccc1)[C@@H](O)C[C@H](Cc1ccccc1)NC(=O)O[C@@H]1CCSC1(C)C [Example 32, (2S,3S,5S)-2-(2,6-Dimethylphenoxyacetyl)amino-5-(3R-2,2-dimethyl-tetrahydrothienyloxycarbonyl)amino-1,6-diphenyl-3-hydroxyhexane] | > 100000 |
| 442 | 84 | – | Cc1cccc(C)c1OCC(=O)N[C@@H](Cc1ccccc1)[C@@H](O)C[C@H](Cc1ccccc1)NC(=O)O[C@@H]1CCS(=O)(=O)C1(C)C [Example 33, (2S,3S,5S)-2-(2,6-Dimethylphenoxyacetyl)amino-5-(3R-2,2-dimethyl-1,1-dioxy-tetrahydrothienyloxycarbonyl)amino-1,6-diphenyl-3-hydroxyhexane] | 18300 |
| 9 | 52 | – | CC(C)c1nc(CN(C)C(=O)N[C@H](C(=O)N[C@@H](Cc2ccccc2)C[C@H](O)[C@H](Cc2ccccc2)NC(=O)OC2COC3OCCC23)C(C)C)cs1 (stereo partly drawn) [Example 34, (2S,3S,5S)-5-(N-(N-((N-Methyl-N-((2-isopropyl-4-thiazolyl)methyl)amino)carbonyl)-L-valinyl)amino)-2-((3R,3aS,6aR), (3S,3aR,6aS)-bis-tetrahydrofuran-3-yl-oxycarbonyl)amino-1,6-diphenyl-3-hydroxyhexane] | 56300 |
| 428 | 52 | – | O=C(N[C@@H](Cc1ccccc1)[C@@H](O)C[C@H](Cc1ccccc1)NC(=O)OC1COC2OCCC12)OCc1cncs1 (stereo partly drawn) [Example 35, (2S,3S,5S)-2-((5-Thiazolyl)methoxycarbonyl)amino-5-((3R,3aS,6aR), (3S,3aR,6aS)-bis-tetrahydrofuran-3-yl-oxycarbonyl)amino-1,6-diphenyl-3-hydroxyhexane] | > 100000 |
| 30 | 66 | – | CC(C)c1nc(COC(=O)N[C@@H](C(=O)N[C@@H](Cc2ccccc2)C[C@H](O)[C@H](Cc2ccccc2)NC(=O)OC2COC3OCCC23)C(C)C)cs1 (stereo partly drawn) [Example 36] | 27800 |
| 14 | 83 | – | CC(C)c1nc(COC(=O)N[C@H](C(=O)N[C@@H](Cc2ccccc2)C[C@H](O)[C@H](Cc2ccccc2)NC(=O)OC2COC3OCCC23)C(C)C)cs1 (stereo partly drawn) [Example 37] | > 100000 |
| 140 | 53 | – | O=C(N[C@@H](Cc1ccccc1)[C@@H](O)C[C@H](Cc1ccccc1)NC(=O)O[C@@H]1CO[C@@H]2OCC[C@@H]21)OCc1cncs1 [Example 38, (2S,3S,5S)-2-((5-Thiazolyl)methoxycarbonyl)amino-5-((3S,3aR,6aS)-bis-tetrahydrofuran-3-yl-oxycarbonyl)amino-1,6-diphenyl-3-hydroxyhexane] | > 100000 |
| 55 | 66 | – | CC(C)c1nc(CN(C)C(=O)N[C@@H](C(=O)N[C@@H](Cc2ccccc2)C[C@H](O)[C@H](Cc2ccccc2)NC(=O)OC2COC3OCCC23)C(C)C)cs1 (stereo partly drawn) [Example 39, (2S,3S,5S)-5-(N-(N-((N-Methyl-N-((2-isopropyl-4-thiazolyl)methyl)amino)carbonyl)-D-valinyl)amino)-2-((3R,3aS,6aR), (3S,3aR,6aS)-bis-tetrahydrofuran-3-yl-oxycarbonyl)amino-1,6-diphenyl-3-hydroxyhexane] | 56200 |
| 502 | 43 | – | O=C(N[C@@H](Cc1ccccc1)C[C@H](O)[C@H](Cc1ccccc1)NC(=O)OC1COC2OCCC12)OCc1cncs1 (stereo partly drawn) [Example 40, (2S,3S,5S)-5-((5-Thiazolyl)methoxycarbonyl)amino-2-((3R,3aS,6aR), (3S,3aR,6aS)-bis-tetrahydrofuran-3-yl-oxycarbonyl)amino-1,6-diphenyl-3-hydroxyhexane] | > 100000 |

| Compound | EC50 [1] [nM] | inhibition at 0.0005 µM [2] [%] | inhibition at 0.001 µM [2] [%] | CC50 at 120 h [3] [nM] |
| --- | --- | --- | --- | --- |
| O=C(N[C@@H](Cc1ccccc1)C[C@H](O)[C@H](Cc1ccccc1)NC(=O)O[C@H]1CO[C@H]2OCC[C@H]21)O[C@H]1CO[C@H]2OCC[C@H]21 [Example 20, (2S,3S,5S)-2,5-Di-((3R,3aS,6aR)-bis-Tetrahydrofuran-3-yl-oxycarbonyl)amino-1,6-diphenyl-3-hydroxyhexane] | 34 | 64 | – | > 100000 |
| O=C(N[C@@H](Cc1ccccc1)[C@@H](O)C[C@H](Cc1ccccc1)NC(=O)O[C@@H]1CO[C@@H]2OCC[C@@H]21)O[C@H]1CO[C@H]2OCC[C@H]21 [Example 22, (2S,3S,5S)-2-((3R,3aS,6aR)-bis-Tetrahydrofuran-3-yl-oxycarbonyl)amino-5-((3S,3aR,6aS)-bis-Tetrahydrofuran-3-yl-oxycarbonyl)amino-1,6-diphenyl-3-hydroxyhexane] | 107 | 73 | – | > 100000 |
| O=C(N[C@@H](Cc1ccccc1)C[C@H](O)[C@H](Cc1ccccc1)NC(=O)O[C@@H]1CO[C@@H]2OCC[C@@H]21)O[C@H]1CO[C@H]2OCC[C@H]21 [Example 23, (2S,3S,5S)-2-((3S,3aR,6aS)-bis-tetrahydrofuran-3-yl-oxycarbonyl)amino-5-((3R,3aS,6aR)-bis-tetrahydrofuran-3-yl-oxycarbonyl)amino-1,6-diphenyl-3-hydroxyhexane] | 891 | 39 | – | > 100000 |
| O=C(N[C@@H](Cc1ccccc1)C[C@H](O)[C@H](Cc1ccccc1)NC(=O)OC1COC2OCCC12)OC1COC2OCCC12 (stereo partly drawn) [Example 41, (2S,3S,5S)-2,5-((3R,3aS,6aR)-bis-Tetrahydrofuran-3-yl-oxycarbonyl)amino-1,6-diphenyl-3-hydroxyhexane] | 43 | 53 | – | > 100000 |
